Data from publication PMC8229396, “Myeloperoxidase Inhibitory and Antioxidant Activities of (E)-2-Hydroxy-α-aminocinnamic Acids Obtained through Microwave-Assisted Synthesis” (Pharmaceuticals, 2021).

Tests used:
Assay type in all cases: biochemical
Myeloperoxidase (MPO) [1] = target: T1, Myeloperoxidase (MPO) (Homo sapiens, UniProt P05164); experiment: MPO peroxidation assay (o-dianisidine/H2O2), dose-response
Myeloperoxidase (MPO) [2] = target: T1, Myeloperoxidase (MPO); experiment: MPO peroxidation assay (o-dianisidine/H2O2), single concentration […]
Myeloperoxidase (MPO) [3] = target: T1, Myeloperoxidase (MPO); experiment: MPO peroxidation assay ([…] at […]) and taurine-chloramine chlorination assay ([…] at […])

T1 sequence (P05164 165-273): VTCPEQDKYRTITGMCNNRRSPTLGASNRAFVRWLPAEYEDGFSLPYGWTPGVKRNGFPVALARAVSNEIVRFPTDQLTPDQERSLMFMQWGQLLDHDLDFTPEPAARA
T1 sequence (P05164 279-745): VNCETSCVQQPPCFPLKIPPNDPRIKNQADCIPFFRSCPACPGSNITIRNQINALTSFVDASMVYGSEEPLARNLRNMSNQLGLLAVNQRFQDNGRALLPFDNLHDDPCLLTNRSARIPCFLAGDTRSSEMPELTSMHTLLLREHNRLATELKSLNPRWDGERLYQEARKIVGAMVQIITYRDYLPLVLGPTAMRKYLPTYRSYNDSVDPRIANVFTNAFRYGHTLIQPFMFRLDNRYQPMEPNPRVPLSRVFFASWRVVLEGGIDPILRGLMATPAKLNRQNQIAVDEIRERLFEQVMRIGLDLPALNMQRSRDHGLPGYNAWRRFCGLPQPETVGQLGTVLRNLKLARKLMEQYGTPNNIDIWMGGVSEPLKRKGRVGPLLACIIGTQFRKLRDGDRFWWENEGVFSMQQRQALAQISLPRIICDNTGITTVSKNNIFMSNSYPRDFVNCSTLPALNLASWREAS

Row | Compound | IC50 (Myeloperoxidase (MPO) [1]) [µM] | further results
1 | N/C(=C/c1ccccc1O)C(=O)O [2a, (E)-(2-hydroxy)-α-aminocinnamic acid] | 45 ± 4 | 
2 | N/C(=C/c1cc(Br)ccc1O)C(=O)O [2b, (E)-(5-Bromo-2-hydroxy)-α-aminocinnamic acid] |  | inhibition at 100 µM (Myeloperoxidase (MPO) [2]): 48.4 ± 4.1%
3 | N/C(=C/c1cc(Cl)ccc1O)C(=O)O [2c, (E)-(5-Chloro-2-hydroxy)-α-aminocinnamic acid] |  | inhibition at 100 µM (Myeloperoxidase (MPO) [3]): 40.5 ± 4.4%
4 | CCOc1cccc(/C=C(/N)C(=O)O)c1O [2e, (E)-(3-Ethoxy-2-hydroxy)-α-aminocinnamic acid] | 43 ± 4 | 
5 | N/C(=C/c1ccc(O)cc1O)C(=O)O [2f, (E)-(2,4-dihydroxy)-α-aminocinnamic acid] | 30 ± 5 | 
6 | COc1ccc2c(c1)c(CC(=O)O)c(C)n2C(=O)c1ccc(Cl)cc1 [indomethacin, reference compound] | 29 ± 2 | 

The next lines start with results.

Row | IC50 (Myeloperoxidase (MPO) [1]) [µM] | Compound | further results
7 | 26 ± 2 | N/C(=C/c1cc(O)ccc1O)C(=O)O [2h, (E)-(2,5-dihydroxy)-α-aminocinnamic acid] | 
8 | 39 ± 2 | Nc1ccc(O)c(C(=O)O)c1 [5-ASA, 5-aminosalicylic acid, reference compound] | 
